Assays:
EP2 [1] = biological target: T1, EP2 (Homo sapiens, UniProt P43116); assay: cAMP assay, EP2; assay type: cell-based; set-up: expressed in transfected cells; host or cells: HEK-EBNA; conditions: HEK-EBNA cells expressing EP2
Procedure: A 384-well drug plate was prepared to contain 6 test compounds, PGE2 and cAMP in 16 serial dilutions in triplicate, using a Biomek station. HEK-EBNA cells expressing a target PG receptor subtype (EP2 or EP4) were suspended in a stimulation buffer (HBSS, 0.1% BSA, 0.5 mM IBMX and 5 mM HEPES, pH 7.4) in a density of 10^4 cells/5 μl. The reaction was initiated by mixing 5 μL drug dilutions with 5 μl of HEK-EBNA cells in a well, carried out for 30 min at room temperature, and followed by the addition of 5 μl anti-cAMP acceptor beads in the control buffer with Tween-20 (25 mM NaCl, 0.03% Tween-20, 5 mM HEPES, pH7.4). After 30 min in the dark at room temperature, the mixtures were incubated with 15 μl biotinylated-cAMP/strepavidin donor beads in Lysis/Detection buffer (0.1% BSA, 0.3% Tween-20 and 5 mM HEPES, pH7.4) for 45 min at the room temperature. Fluorescence changes were read using a Fusion-alpha HT microplate reader.

hTP = biological target: T2, hTP (Homo sapiens, UniProt P21731); assay: FLIPR calcium signal, hTP; assay type: cell-based; conditions: read-out: Other Receptors (EC50 in nM) hTP
T2 construct: expressed in transfected cells; host or cells: HEK-293(EBNA)
T2 sequence (P21731 1-343): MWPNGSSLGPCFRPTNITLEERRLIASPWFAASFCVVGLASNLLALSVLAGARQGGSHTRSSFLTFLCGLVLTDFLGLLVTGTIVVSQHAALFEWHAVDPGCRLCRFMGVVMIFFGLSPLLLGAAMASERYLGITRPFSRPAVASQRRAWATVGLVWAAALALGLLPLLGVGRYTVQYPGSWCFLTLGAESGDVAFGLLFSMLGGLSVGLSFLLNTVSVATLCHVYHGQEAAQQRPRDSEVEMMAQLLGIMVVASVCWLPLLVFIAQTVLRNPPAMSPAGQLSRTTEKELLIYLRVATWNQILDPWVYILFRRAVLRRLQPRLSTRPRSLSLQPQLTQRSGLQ
Procedure: (§1) HEK-293(EBNA) cells, stably expressing one type or subtype of recombinant human prostaglandin receptors (prostaglandin receptors expressed: hDP/Gqs5; hEP1; hEP2/Gqs5; hEP3A/Gqi5; hEP4/Gqs5; hFP; hIP; hTP), were cultured in 100 mm culture dishes in high-glucose DMEM medium containing 10% fetal bovine serum, 2 mM l-glutamine, 250 μg/ml geneticin (G418) and 200 μg/ml hygromycin B as selection markers, and 100 units/ml penicillin G, 100 μg/ml streptomycin and 0.25 μg/ml amphotericin B.
(§2) Cells were seeded at a density of 5×10^4 cells per well in Biocoat® Poly-D-lysine-coated black-wall, clear-bottom 96-well plates (Becton-Dickinson) and allowed to attach overnight in an incubator at 37° C. Cells were then washed two times with HBSS-HEPES buffer (Hanks Balanced Salt Solution without bicarbonate and phenol red, 20 mM HEPES, pH 7.4) using a Denley Cellwash plate washer (Labsystems). After 45 minutes of dye-loading in the dark, using the calcium-sensitive dye Fluo-4 […] at a final concentration of 2 μM, plates were washed four times with HBSS-HEPES buffer to remove excess dye leaving 100 μl in each well. Plates were re-equilibrated to 37° C. for a few minutes.
(§3) Cells were excited with an Argon laser at 488 nm, and emission was measured through a 510-570 nm bandwidth emission filter (FLIPR™, Molecular Devices, Sunnyvale, Calif.). Drug solution was added in a 50 μl volume to each well to give the desired final concentration. The peak increase in fluorescence intensity was recorded for each well. On each plate, four wells each served as negative (HBSS-HEPES buffer) and positive controls (standard agonists: BW245C (hDP); PGE2 (hEP1; hEP2/Gqs5; hEP3A/Gqi5; hEP4/Gqs5); PGF2α (hFP); carbacyclin (hIP); U-46619 (hTP), depending on receptor). The peak fluorescence change in each drug-containing well was then expressed relative to the controls.
Compounds were tested in a high-throughput (HTS) or concentration-response (CoRe) format. […]

EP4 receptors = biological target: T3, EP4 receptors (Homo sapiens, UniProt P35408); assay: Radioligand binding [3H]PGE2, EP4 Ki; conditions: [3H]PGE2 competition, HEK-293 cells expressing EP4
T3 construct: expressed in transfected cells; host or cells: HEK-293
Procedure: (§4) HEK-293 cells stably expressing the human or feline FP receptor, or EP1, EP2, or EP4 receptors were washed with TME buffer, scraped from the bottom of the flasks, and homogenized for 30 sec using a Brinkman PT 10/35 polytron. TME buffer was added to achieve a final 40 ml volume in the centrifuge tubes (the composition of TME is 100 mM TRIS base, 20 mM MgCl2, […]; 10N HCl is added to achieve a pH of 7.4).
(§5) The cell homogenate was centrifuged at 19000 r.p.m. for 20 min at 4° C. using a Beckman Ti-60 rotor. The resultant pellet was resuspended in TME buffer to give a final 1 mg/ml protein concentration, as determined by Biorad assay. Radioligand binding competition assays vs. [^3H-]17-phenyl PGF2α (5 nM) were performed in a 100 μl volume for 60 min. Binding reactions were started by adding plasma membrane fraction. The reaction was terminated by the addition of 4 ml ice-cold TRIS-HCl buffer and rapid filtration through glass fiber GF/B filters using a Brandel cell harvester. The filters were washed 3 times with ice-cold buffer and oven dried for one hour.
(§6) [^3H-] PGE2 (specific activity 180 Ci mmol) was used as the radioligand for EP receptors. [^3H] 17-phenyl PGF2α was employed for FP receptor binding studies. Binding studies employing EP1, EP2, EP4 and FP receptors were performed in duplicate in at least three separate experiments. A 200 μl assay volume was used. Incubations were for 60 min at 25° C. and were terminated by the addition of 4 ml of ice-cold 50 mM TRIS-HCl, followed by rapid filtration through Whatman GF/B filters and three additional 4 ml washes in a cell harvester (Brandel). Competition studies were performed using a final concentration of 5 nM [^3H]-PGE2, or 5 nM [^3H] 17-phenyl PGF2α and non-specific binding determined with 10^−5M of unlabeled PGE2, or 17-phenyl PGF2α, according to receptor subtype studied.

hEP2/Gqs5 = biological target: T4, hEP2/Gqs5 (Homo sapiens, UniProt P43116); assay: FLIPR calcium signal, EP2; assay type: cell-based; conditions: HEK-293(EBNA) cells
T4 construct: expressed in transfected cells; host or cells: HEK-293(EBNA)
Procedure: as §1, §2, §3
(§7) Compounds were tested in a high-throughput (HTS) or concentration-response (CoRe) format. In the HTS format, forty-four compounds per plate were examined in duplicates at a concentration of 10^−5 M. To generate concentration-response curves, four compounds per plate were tested in duplicates in a concentration range between 10^−5 and 10^−11 M. The duplicate values were averaged. In either, HTS or CoRe format each compound was tested on at least 3 separate plates using cells from different passages to give an n≧3.

normotensive dogs = assay: Intraocular pressure and ocular surface hyperemia in normotensive dogs; assay type: in vivo, dog; set-up: scale not given here; conditions: once daily for 5 days
Text: U.S. Pat. No. 7,091,231 describes the methods used for these in vivo tests.

hEP4/Gqs5 = biological target: T5, hEP4/Gqs5 (Homo sapiens, UniProt P35408); assay: FLIPR calcium signal, EP4; assay type: cell-based; conditions: HEK-293(EBNA) cells
T5 construct: expressed in transfected cells; host or cells: HEK-293(EBNA)
Procedure: as §1, §2, §3, §7

EP2 [2] = biological target: T1, EP2; assay: Competition binding [3H]PGE2, EP2 Ki; set-up: expressed in transfected cells; host or cells: HEK 293; conditions: [3H]PGE2 competition, HEK 293 cells expressing human EP2
Procedure: Competition binding experiments were performed in a medium containing Hank's balanced salt solution, Hepes 20 mM, pH 7.3, membranes (˜60 μg protein) or 2×10^5 cells from HEK 293 cells stably expressing human EP2 receptors, [^3H]PGE2 (10 nM) and various concentrations of test compounds in a total volume of 300 μl. Reaction mixtures were incubated at 23° C. for 60 min, and were filtered over Whatman GF/B filters under vacuum. Filters were washed three times with 5 ml ice-cold buffer containing 50 mM Tris/HCl (pH 7.3). Non-specific binding was estimated in the presence of excess unlabeled PGE2 (10 μM). Binding data fitted to the binding model for a single class of binding sites, using nonlinear regression analysis. IC50 values thus obtained were converted to Ki using the equation of Ki=(IC50/(1+[L]/KD) where [L] represents PGE2 concentration (10 nM) and KD the dissociation constant for [^3H]PGE2 at human EP2 receptors (40 nM).
as §4, §5, §6

hDP/Gqs5 = biological target: T6, hDP/Gqs5 (Homo sapiens, UniProt Q13258); assay: FLIPR calcium signal, hDP; assay type: cell-based; conditions: read-out: Other Receptors (EC50 in nM) hDP
T6 construct: expressed in transfected cells; host or cells: HEK-293(EBNA)
T6 sequence (Q13258 1-359): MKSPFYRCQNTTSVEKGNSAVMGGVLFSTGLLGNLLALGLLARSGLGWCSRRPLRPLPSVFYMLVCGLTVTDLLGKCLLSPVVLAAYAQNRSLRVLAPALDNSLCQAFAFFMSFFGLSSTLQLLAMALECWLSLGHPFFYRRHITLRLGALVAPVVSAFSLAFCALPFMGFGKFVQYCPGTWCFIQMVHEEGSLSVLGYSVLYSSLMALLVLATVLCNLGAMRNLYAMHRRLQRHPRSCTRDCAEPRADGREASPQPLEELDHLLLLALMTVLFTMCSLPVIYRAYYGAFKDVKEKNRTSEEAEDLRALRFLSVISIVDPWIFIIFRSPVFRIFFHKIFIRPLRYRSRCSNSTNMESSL
Procedure: as §1, §2, §3, §7

T1 sequence (P43116 whole entry): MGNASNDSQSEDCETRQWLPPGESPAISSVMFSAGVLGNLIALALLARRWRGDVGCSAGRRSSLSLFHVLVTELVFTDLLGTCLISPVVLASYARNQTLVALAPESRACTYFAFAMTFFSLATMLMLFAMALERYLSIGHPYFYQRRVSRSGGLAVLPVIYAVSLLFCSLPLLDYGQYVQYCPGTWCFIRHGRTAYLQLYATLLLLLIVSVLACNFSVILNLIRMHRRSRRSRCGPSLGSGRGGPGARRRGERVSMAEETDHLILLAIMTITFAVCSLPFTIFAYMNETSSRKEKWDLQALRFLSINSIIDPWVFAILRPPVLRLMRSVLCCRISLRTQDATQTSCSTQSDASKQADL
T4 sequence (P43116 whole entry): as above
T5 sequence (P35408 whole entry): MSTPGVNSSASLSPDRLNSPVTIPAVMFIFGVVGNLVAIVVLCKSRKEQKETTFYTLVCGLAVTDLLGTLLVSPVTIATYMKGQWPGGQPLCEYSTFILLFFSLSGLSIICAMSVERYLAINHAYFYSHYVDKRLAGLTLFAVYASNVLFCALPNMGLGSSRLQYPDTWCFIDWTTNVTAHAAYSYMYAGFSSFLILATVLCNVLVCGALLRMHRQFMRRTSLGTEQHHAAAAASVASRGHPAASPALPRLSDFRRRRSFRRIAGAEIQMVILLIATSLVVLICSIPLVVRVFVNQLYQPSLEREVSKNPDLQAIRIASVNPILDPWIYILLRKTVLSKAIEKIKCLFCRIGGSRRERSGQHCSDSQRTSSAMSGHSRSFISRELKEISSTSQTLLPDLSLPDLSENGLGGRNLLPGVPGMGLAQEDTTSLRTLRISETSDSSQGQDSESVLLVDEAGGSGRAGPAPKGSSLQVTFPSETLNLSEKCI
T3 sequence (P35408 whole entry): as above

EC50 (EP2 [1]) [nM] | EC50 (hTP) [nM] | Ki (EP4 receptors) [nM] | EC50 (hEP2/Gqs5) [nM] | maximum ocular surface hyperemia (OSH) score (normotensive dogs; 0.01%, at 74 h) | EC50 (hEP4/Gqs5) [nM] | Ki (EP2 [2]) [nM] | maximum ocular surface hyperemia (OSH) score (normotensive dogs; 0.001%, at 26 h) | EC50 (hDP/Gqs5) [nM] | maximum ocular surface hyperemia (OSH) score (normotensive dogs; 0.001%, at 50 h) | SMILES
0.8 | 4620 | 394 | 3270 | 0.8 | 10200 | 22 | – | – | – | O=C(O)CCCCCC[C@@H]1[C@@H](CCc2cc(Cl)cc(Cl)c2)[C@H](O)C[C@H]1Cl [compound 6, 7-{(1R,2R,3R,5R)-5-Chloro-2-[2-(3,5-dichloro-phenyl)-ethyl]-3-hydroxy-cyclopentyl}-heptanoic acid]
– | – | – | – | – | – | – | 0.9 | – | – | CC(C)OC(=O)c1ccc(CCC[C@@H]2[C@@H](CCc3cc(Cl)cc(CO)c3)[C@H](O)C[C@H]2Cl)s1 [compound 18, Isopropyl 5-(3-((1R,2R,3R,5R)-5-chloro-2-(3-chloro-5-(hydroxymethyl)phenethyl)-3-hydroxycyclopentyl)propyl)thiophene-2-carboxylate]
0.08 | – | 437 | 86 | – | > 10000 | 1 | – | 2940 | 0.8 | O=C(O)c1ccc(CCC[C@@H]2[C@@H](CCc3cc(Cl)cc(CO)c3)[C@H](O)C[C@H]2Cl)s1 [11c, 5-(3-((1R,2R,3R,5R)-5-chloro-2-(3-chloro-5-(hydroxymethyl)phenethyl)-3-hydroxycyclopentyl)propyl)thiophene-2-carboxylic acid]

— patent publication US7592366B2, “Therapeutic compounds” (Allergan, Inc., priority 2006, dated 2009)
